The test system of the test is HeLa cells. The test can be described thus: Measurement of the cell cycle inhibition in HeLa cells. In kind it is cell-based. The conditions noted are these: HeLa B cells, 20 h incubation with compound; FACS ratio G0/G1 to G2/M vs DMSO; concentration at which 50% of cells are in cell cycle arrest. The method, boiled down:
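HeLa B cells exposed 20 h to compounds (1×10^−9 to 1×10^−6 M final), then lysed in RNase/propidium iodide buffer and analysed by FACS. G0/G1 to G2/M ratio compared with DMSO controls; IC50 is concentration giving 50% of cells in cell cycle arrest.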

SMILES strings stand for the structures.

Regarding `C[C@H](Nc1nc(-n2cc(Cl)cn2)nc(Cl)c1-c1c(F)cc(F)cc1F)C(F)(F)F` [Example 35], the IC50 worked out at 36 nM. For `CC(C)[C@@H](C)Nc1nc(-n2cncn2)nc(Cl)c1-c1c(F)cccc1Cl` [Example 48] the value was 13 nM; for `CC(C)c1ccn(-c2nc(Cl)c(-c3c(F)cc(F)cc3F)c(N[C@@H](C)C(F)(F)F)n2)n1` [Example 5], 4.6 nM; for `CCC(C)Nc1nc(-n2cccn2)nc(Cl)c1-c1c(F)cccc1Cl` (stereo not shown) [Example 106], 12 nM.

For `CC(C)Nc1nc(-n2cccn2)nc(Cl)c1-c1c(F)cc(F)cc1F` [Example 101], the IC50 turned out to be 33 nM. As for `CCC(C)Nc1nc(-n2ccnn2)nc(Cl)c1-c1c(F)cc(F)cc1F` (stereo not shown) [Example 91], the half-maximal inhibitory concentration (IC50) is 20 nM. For the compound `C[C@H](Nc1nc(-n2cnc(SCc3ccccc3)n2)nc(Cl)c1-c1c(F)cc(F)cc1F)C(F)(F)F` [Example 151], the half-maximal inhibitory concentration (IC50) amounted to 8.3 nM. On to `COc1cc(F)c(-c2c(Cl)nc(C(N)=O)nc2N[C@@H](C)C(F)(F)F)c(F)c1` [Example 189], for which the half-inhibitory concentration (IC50) stood at 30 nM. The same measure for `CC1CCN(c2nc(-n3ccnn3)nc(Cl)c2-c2c(F)cccc2F)CC1` [Example 117]: 19 nM. As for `CC1CCN(c2nc(-n3ccnn3)nc(Cl)c2-c2c(F)cc(F)cc2F)CC1` [Example 29], the IC50 was determined as 17 nM. Regarding `COc1ccc(-c2c(Cl)nc(C(N)=O)nc2N[C@@H](C)C(F)(F)F)c(Cl)c1` [Example 217], the half-inhibitory concentration (IC50) is 23 nM. For `Cc1nc(C(N)=NO)nc(N[C@@H](C)C(F)(F)F)c1-c1c(F)cc(F)cc1F` [Example 171] the value was 54 nM; for `Cc1ccc(-c2c(Cl)nc(-n3cccn3)nc2N2CCC(C)CC2)c(F)c1` [Example 87], 39 nM; for `Cc1nc(-n2ccnn2)nc(N[C@@H](C)C(F)(F)F)c1-c1c(F)cc(F)cc1F` [Example 157], 19 nM. The same measure for `CCCNc1nc(-n2cccn2)nc(Cl)c1-c1ccc(C)cc1F` [Example 103]: 39 nM.

As for `Cc1csc(-c2nc(Cl)c(-c3c(F)cc(F)cc3F)c(N[C@@H](C)C(F)(F)F)n2)n1` [Example 178], the 50% inhibitory concentration (IC50) came to 20 nM.

A word on the IC50: it is the point on the concentration scale where inhibition reaches its midpoint.

The values above are taken from patent US20080146593A1, “Substituted 5-Phenyl Pyrimidines I In Therapy” (Basf Aktiengesellschaft, priority 2005, published 2008).
